{"source": "paper PMC6662706", "about": "“Short amylin receptor antagonist peptides improve memory deficits in Alzheimer’s disease mouse model” (Scientific Reports, 2019)", "key": {"[1]": {"assay": "Brain uptake of R5 compared with davalintide, wild-type and het CTR mice", "type": "in vivo, mouse", "conditions": "Cy5.5 labeled, ip 0.1 mmole, intact brain imaged 2 h post-injection, wild-type and het CTR mice, n=5 per group", "experimental": "For peptide R5 brain uptake in comparison to Davlintide, wild-type littermate (C57BL/6 background) mice and heterozygous CTR knockdown mice (50% CTR expression level compared to wild type control mice and presumably with 50% AMY receptor expression level) was used (n=5 in each group). Mouse brains were extracted after 2h from a single injection and fluorescence in brains was quantified as mentioned above.\nSupplementary Figure S3: The comparison of brain permeability for R5 and Davalintide."}, "[2]": {"set-up": "method as in PMID 29067318", "conditions": "mouse, not told; cited from earlier work"}, "[3]": {"assay": "Ex vivo NIR fluorescence brain imaging after ip injection (brain penetration)", "type": "in vivo, mouse", "conditions": "wild-type mice, 0, 0.6, 2, 10, 20 mg/kg single ip dose, 2 h, n = 3 per dose", "source_text": "Blood brain barrier (BBB) penetration can limit the potential of long sequence peptides as therapeutic agents in central nervous system (CNS). Previously, we have reported that a cyclized form of AC253 peptide and to a lesser degree its linear form can both penetrate the BBB at therapeutically relevant levels, and are localized to the hippocampus and cortex, regions relevant to memory and learning processes. Therefore, we examined the ability of Cy5.5 labeled peptide fragments (R5, and R14) to penetrate BBB in wild-type mice using NIR fluorescence ex vivo brain imaging. Brain fluorescence resulting from either R5 or R14 was assessed against full length AC253 2 h after a single intraperitoneal (ip) injection of peptides. […] Fluorescence signals were distributed throughout the cortex, but particularly strong within the hippocampal regions, where a very high density of amylin receptor expression has been reported. […]\nIn vivo brain penetration and pharmacokinetics of the peptides were determined in 6-month-old male or female wild-type (C57BL/6 background) and heterozygous CTR mice (het-CTR). […]\nFor ex vivo imaging experiments and peptide brain uptake, we used age matched 6-month-old wild-type littermate (C57BL/6 background) mice. […] Region of interest was drawn around the brain region and analyzed using the Kodak ID 3.6 software and the mean fluorescence intensity was recorded. […]"}, "[4]": {"assay": "In vitro proteolytic stability in human serum", "type": "in vitro ADME", "conditions": "37°C, intact peptide at different time points estimated by RP-HPLC", "experimental": "Subsequently, we investigated the proteolytic stability of R5, and R14 compared to AC253. […] By assessing the main degradation fragments for both peptides using MALDI-TOF, we found both peptides to be cleaved at the basic arginine amino acids.\nSupplementary Figure S2: The comparison of bio-distribution for the fragments and their parent peptide. (A) Ex vivo fluorescence showing bio-distribution images for Cy5.5-R5, R14, AC253 in different organs at after a 2 h of a single ip injection of the peptides (0.1 mmol in 200µl saline). (B) Quantification of peptides fluorescence in each organ (n=3). (C) In vitro stability of R5, R14, and AC253 peptides in human serum compared with AC253 at 37°C. The amount of intact peptide in human serum at different time points was estimated using RP-HPLC."}, "[5]": {"biological_target": "T1, AMY3 receptor (CTR+RAMP3) expressed on HEK293 cells (HEK-AMY3) (Homo sapiens, UniProt O60896+P30988)", "T1 construct": "expressed in transfected cells", "T1 sequence (P30988 25-474)": "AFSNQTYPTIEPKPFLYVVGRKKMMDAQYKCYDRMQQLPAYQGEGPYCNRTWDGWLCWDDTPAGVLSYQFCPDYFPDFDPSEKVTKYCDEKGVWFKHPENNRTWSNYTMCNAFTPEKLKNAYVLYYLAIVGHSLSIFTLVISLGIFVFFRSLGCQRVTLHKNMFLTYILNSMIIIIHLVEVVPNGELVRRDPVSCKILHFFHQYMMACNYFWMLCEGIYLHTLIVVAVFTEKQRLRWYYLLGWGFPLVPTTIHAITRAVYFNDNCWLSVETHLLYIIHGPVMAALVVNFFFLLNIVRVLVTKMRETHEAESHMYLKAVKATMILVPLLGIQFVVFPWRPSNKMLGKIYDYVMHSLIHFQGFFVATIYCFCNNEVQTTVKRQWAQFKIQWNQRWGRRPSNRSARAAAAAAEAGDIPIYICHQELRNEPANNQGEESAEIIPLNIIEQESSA", "T1 sequence (O60896 24-148)": "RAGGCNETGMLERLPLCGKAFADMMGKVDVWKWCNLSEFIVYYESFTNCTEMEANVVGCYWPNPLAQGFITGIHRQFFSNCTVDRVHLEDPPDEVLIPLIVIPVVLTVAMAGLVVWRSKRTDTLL", "assay": "Peptide array-cell binding assay (SPOT cellulose membrane, GFP-labeled cells)", "conditions": "library R1-R14 on cellulose membrane, GFP-labeled HEK-AMY3 vs HEK-WT and HEK-CTR cells", "source_text": "In order to identify shorter peptides with selective recognition and binding to amylin receptor, enhanced metabolic stability and brain penetrability than the linear full length peptide, we designed a peptide library comprised of 14 different sequences, namely, R1-R14. Fragments (R1−R13) are 12 amino acids in length and peptide R14 is 14 amino acids. The initial fragment comprised the first 12 amino acids from the N-terminus of AC253 sequence, and subsequent fragments derived from shifting one amino acid at a time, as depicted in Supplemental Fig. S1A. […] The relative binding affinities of peptide fragments were determined through measuring and plotting the net fluorescence intensity of the bound GFP labeled live cells on each spot as measured with a fluorescence Kodak imager (Supplemental Fig. S1C). […]\nTo screen peptide library for amylin receptor binding affinity, transfected GFP-positive Human Embryonic Kidney 293 cells that express AMY3 receptor (CTR+RAMP3) as previously reported was used ^8. […] The membrane was scanned at 465 nm excitation and 535 nm emission and the net fluorescence intensity of each peptide spot was quantified using Kodak IS2000MM Image station (GE Healthcare Systems/ART Inc). […]"}, "[6]": {"test_system": "hippocampal LTP (CA1)", "assay": "Hippocampal long-term potentiation (LTP) in slices from wild type mice", "set-up": "species or system mouse", "conditions": "wild type mouse slices, 250 nM", "experimental": "We examined whether the peptide fragments were capable of influencing Aβ- or hAmylin-induced reduction of hippocampal LTP in mice. Exposure of hippocampal slices from wild-type mice to hAmylin (50 nM) or Aβ (50 nM) depressed LTP induced by a weak tetanization protocol at the CA1 region as previously reported[20],[30]. To determine whether peptides affected hAmylin or Aβ- induced depression of LTP, we applied 250 nM R5 or R14 continuously for 5 min prior to exposure of the hippocampal slices to 50 nM hAmylin or Aβ and the subsequent LTP induction. […] We therefore sought to determine whether peptide fragments were also capable of improving LTP levels in the same TgCRND8 AD mouse model. […] Importantly, doses of the short peptide fragments used in these experiments were equimolar to those used for AC253 and pramlintide in our previous studies[20],[30].\nFor electrophysiology experiment, hippocampal slices (400-μm thick) were prepared using a vibratome from wild type and TgCRND8 mice (8 month of age, male or female). For long-term potentiation (LTP) measurement, the stimulus strength was set to elicit 40–50% of the maximum fEPSP (field excitatory postsynaptic potential) amplitude and test pulses were delivered once every 30s. LTP was induced by 3-theta-burst stimulation protocol (each burst consisted of four pulses at 100 Hz with a 200-ms interburst interval). All drugs and chemicals were applied directly to the slice via bath perfusion.\nBrains were quickly removed from mice following decapitation, placed in a cold artificial cerebral spinal fluid (aCSF) on a vibratome chamber, and transverse sections cut through the hippocampus. The aCSF contained (in millimolar 124 NaCl, 3 KCl, 2.4 CaCl2, 2 MgCl2, 1.25 NaH2PO4, 26 NaHCO3, and 10 D-glucose and was equilibrated with 95 % O2 and 5 % CO2. Hippocampal slices (400-μm thick) were maintained in aCSF-filled holding chamber at room temperature for at least 1 h and individually transferred to the submerged glass bottom recording chamber, which was constantly perfused with aCSF (2 ml/min) at 30 °C. Field excitatory postsynaptic potential (fEPSP) was recorded with a metallic (Pt/Ir) electrode (FHC, Bowdoin, ME) from the stratum radiatum layer of Cornu ammonis 1 region of the hippocampus (CA1) area, and the Schaffer collateral afferents were stimulated with 100-μs test pulses via a bipolar cluster electrode (FHC). For long-term potentiation (LTP) experiments, the stimulus strength was set to elicit 40–50 % of the maximum fEPSP amplitude and test pulses were delivered to Schaffer collaterals once every 30 s. […] Before 3-TBS or drug application, the responses were monitored for at least 10 min to ensure a stable baseline of fEPSP. […]"}}, "note": "Positions of bridges follow the written chain, without caps; N, C: chain ends. No end group written: not given here.", "data": [{"substance": "davalintide [reference compound]", "values": [{"measurement": "brain permeability, R5 versus davalintide", "setting": "[1]", "result": "lower brain permeability"}]}, {"substance": "pramlintide: synthetic analog of amylin (KCNTATCATQRLANFLVHSSNNFGPILPPTNVGSNTY-NH2; disulfide 2-7; chains of the INN, looked up)", "values": [{"measurement": "brain permeability after systemic administration compared with cAC253 or R5", "setting": "[2]", "result": "lower brain permeability"}]}, {"substance": "LGRLSQELHRLQTY-NH2 [R14]", "values": [{"measurement": "accumulation in the brain at increasing dose", "setting": "[3]", "result": "dose-dependent"}, {"measurement": "half-life", "setting": "[4]", "result": 1.5, "unit": "h"}]}, {"substance": "LQTYPRTNTGSN [R11]", "values": [{"measurement": "relative binding to HEK-AMY3 cells in library screening", "setting": "[5]", "result": "minimal binding"}, {"measurement": "effect of peptide alone on hippocampal LTP", "setting": "[6]", "result": "did not impair LTP"}]}]}
